For three compounds, clearance, bioavailability and Vd results are on record in ChEMBL document CHEMBL3351500, “Fragment-based identification and optimization of a class of potent pyrrolo[2,1-f][1,2,4]triazine MAP4K4 inhibitors” (Bioorg Med Chem Lett, 2014).

As a reminder, the clearance is the volume of plasma or blood freed of the substance per unit of time. Low readings indicate a low capacity for elimination, high ones a high capacity for elimination. As usually defined, the bioavailability is the share of a dose that reaches the circulation, judged against a reference dose that is usually intravenous. Read a high bioavailability as much systemic uptake.

What all share (type): ADME, organism-based
Series [1] can be described thus: Clearance in mouse plasma at 1 mg/kg, iv. Set-up: dose 1 mg/kg, route intravenous.
Series [2] can be described thus: Oral bioavailability in mouse plasma at 25 mg/kg.
Series [3] is described as follows: Volume of distribution at steady state in mouse plasma at 1 mg/kg, iv. The following applies: read-out: Vdss. On the set-up: dose 1 mg/kg, route intravenous.

Turning to `CC(C)(O)Cn1cc(-c2ccc(-c3cc4c(Nc5ccncc5)ncnn4c3)cc2)cn1`, in series [1], the clearance is 22 mL/min/kg. This compound showed a bioavailability in series [2] of 16%. In addition, the Vd in series [3] turned out to be 2 L/kg.
In series [1], `CS(=O)(=O)c1ccc(-c2cc3c(Nc4ccncc4)ncnn3c2)cc1` gave a clearance of 25 mL/min/kg. In addition, in series [2], the bioavailability is 6%. Also, the Vd in series [3] is 1 L/kg.
In series [1], `CN1CCN(c2ccc(-c3cc4c(Nc5ccncc5)ncnn4c3)cn2)CC1` returned a clearance of 78 mL/min/kg. In series [3], the Vd is 15 L/kg.
